How the values were obtained:
Assay in all cases: Test G preemergence/postemergence greenhouse plant response rating 0 to 100
[1] = test system: large crabgrass; assay type: in vivo, Digitaria sanguinalis; settings: 0 to 100 scale
Excerpt: (§1) Seeds, rhizomes, or plant parts of alfalfa (Medicago ativa), annual bluegrass (Poa annua), bermudagrass (Cynodon dactylon), broadleaf signalgrass (Brachiaria plantaginea), common purslane (Portulaca oleracea), common ragweed (Ambrosia elatior), […] (Paspalum dilatatum), goosegrass (Eleusine indica), guineagrass (Panicum maximum), […] exaltata), johnsongrass (Sorghum halepense), large crabgrass (Digitaria sanguinalis), peanut (Arachis hypoagaea), pitted morningglory (Ipomoea lacunosa), purple nutsedge (Cyperus rotundus), sandbur (Cenchrus echinatus), smooth crabgrass (Digitaria ischaemum) and yellow nutsedge (Cyperus esculentus) were planted into greenhouse pots containing greenhouse planting medium. Each pot contained only one plant species. The test compound was dissolved in a non-phytotoxic solvent and applied preemergence and/or postemergence to the plants. Preemergence applications were made within one day of planting the seeds or plant parts. Postemergence applications were applied when the plants were in the two to four leaf stage (three to twenty cm). Test chemicals were dissolved in a non-phytotoxic solvent and applied preemergence and postemergence to the plants. Untreated control plants and treated plants were placed in the greenhouse and visually evaluated for injury at 13 to 21 days after herbicide application. […] A dash (-) response indicates no test result.

[2] = test system: annual bluegrass; assay type: in vivo, Poa annua; settings: 0 to 100 scale
Excerpt: as §1

[3] = test system: peanut; assay type: in vivo, Arachis hypoagaea; settings: 0 to 100 scale
Excerpt: as §1

[4] = test system: yellow nutsedge; assay type: in vivo, Cyperus esculentus; settings: Rate 125 g/ha, 0 to 100 scale
Excerpt: as §1

[5] = test system: guineagrass; assay type: in vivo, Panicum maximum; settings: 0 to 100 scale
Excerpt: as §1

[6] = test system: goosegrass; assay type: in vivo, Eleusine indica; settings: 0 to 100 scale
Excerpt: as §1

[7] = test system: bermudagrass; assay type: in vivo, Cynodon dactylon; settings: 0 to 100 scale
Excerpt: as §1

[8] = test system: purple nutsedge; assay type: in vivo, Cyperus rotundus; settings: Rate 125 g/ha, 0 to 100 scale
Excerpt: as §1

[9] = test system: broadleaf signalgrass; assay type: in vivo, Brachiaria plantaginea; settings: 0 to 100 scale
Excerpt: as §1

[10] = test system: johnsongrass; assay type: in vivo, Sorghum halepense; settings: 0 to 100 scale
Excerpt: as §1

[11] = test system: pitted morningglory; assay type: in vivo, Ipomoea lacunosa; settings: 0 to 100 scale
Excerpt: as §1

[12] = test system: itchgrass; assay type: in vivo, Rottboellia exaltata; settings: 0 to 100 scale
Excerpt: as §1

[13] = test system: dallisgrass; assay type: in vivo, Paspalum dilatatum; settings: 0 to 100 scale
Excerpt: as §1

[14] = test system: sandbur; assay type: in vivo, Cenchrus echinatus; settings: 0 to 100 scale
Excerpt: as §1

[15] = test system: common ragweed; assay type: in vivo, Ambrosia elatior; settings: 0 to 100 scale
Excerpt: as §1

[16] = test system: alfalfa; assay type: in vivo, Medicago ativa; settings: 0 to 100 scale
Excerpt: as §1

[17] = test system: common purslane; assay type: in vivo, Portulaca oleracea; settings: 0 to 100 scale
Excerpt: as §1

With `CC(C)Oc1cc(-c2nn3c(c2Cl)CCCC3)c(F)cc1Cl` [Compound 21] the “Plant response rating, Large Crabgrass” value ([1]; POSTEMERGENCE, Rate 125 g/ha) was 0, the “Plant response rating, Large Crabgrass” value ([1]; POSTEMERGENCE, Rate 250 g/ha) was 0 and the “Plant response rating, Large Crabgrass” value ([1]; PREEMERGENCE, Rate 125 g/ha) was 100. For the same compound, the “Plant response rating, Large Crabgrass” value ([1]; PREEMERGENCE, Rate 250 g/ha) was 60, the “Plant response rating, Ann Bluegrass” value ([2]; POSTEMERGENCE, Rate 125 g/ha) was 0 and the “Plant response rating, Ann Bluegrass” value ([2]; POSTEMERGENCE, Rate 250 g/ha) was 0. For the same compound, the “Plant response rating, Ann Bluegrass” value ([2]; PREEMERGENCE, Rate 125 g/ha) was 30, the “Plant response rating, Ann Bluegrass” value ([2]; PREEMERGENCE, Rate 250 g/ha) was 0 and the “Plant response rating, Peanuts” value ([3]; POSTEMERGENCE, Rate 125 g/ha) was 0. For the same compound, the “Plant response rating, Peanuts” value ([3]; POSTEMERGENCE, Rate 250 g/ha) was 0, the “Plant response rating, Peanuts” value ([3]; PREEMERGENCE, Rate 125 g/ha) was 0 and the “Plant response rating, Peanuts” value ([3]; PREEMERGENCE, Rate 250 g/ha) was 20. For the same compound, the “Plant response rating, Yellow Nutsedge” value ([4]; POSTEMERGENCE) was 0, the “Plant response rating, Yellow Nutsedge” value ([4]; PREEMERGENCE) was 0 and the “Plant response rating, Guineagrass” value ([5]; POSTEMERGENCE, Rate 125 g/ha) was 0. The “Plant response rating, Guineagrass” value ([5]; POSTEMERGENCE, Rate 250 g/ha) was 0, the “Plant response rating, Guineagrass” value ([5]; PREEMERGENCE, Rate 125 g/ha) was 100 and the “Plant response rating, Guineagrass” value ([5]; PREEMERGENCE, Rate 250 g/ha) was 0. The “Plant response rating, Goosegrass” value ([6]; POSTEMERGENCE, Rate 125 g/ha) was 0, the “Plant response rating, Goosegrass” value ([6]; POSTEMERGENCE, Rate 250 g/ha) was 0 and the “Plant response rating, Goosegrass” value ([6]; PREEMERGENCE, Rate 125 g/ha) was 100. For the same compound, the “Plant response rating, Goosegrass” value ([6]; PREEMERGENCE, Rate 250 g/ha) was 70, the “Plant response rating, Bermudagrass” value ([7]; POSTEMERGENCE, Rate 125 g/ha) was 0 and the “Plant response rating, Bermudagrass” value ([7]; POSTEMERGENCE, Rate 250 g/ha) was 0. For the same compound, the “Plant response rating, Bermudagrass” value ([7]; PREEMERGENCE, Rate 125 g/ha) was 20, the “Plant response rating, Bermudagrass” value ([7]; PREEMERGENCE, Rate 250 g/ha) was 0 and the “Plant response rating, Purple Nutsedge” value ([8]; POSTEMERGENCE) was 0. For the same compound, the “Plant response rating, Purple Nutsedge” value ([8]; PREEMERGENCE) was 0, the “Plant response rating, Brdlf Sgnlgrass” value ([9]; POSTEMERGENCE, Rate 125 g/ha) was 0 and the “Plant response rating, Brdlf Sgnlgrass” value ([9]; POSTEMERGENCE, Rate 250 g/ha) was 0. The “Plant response rating, Brdlf Sgnlgrass” value ([9]; PREEMERGENCE, Rate 125 g/ha) was 0, the “Plant response rating, Brdlf Sgnlgrass” value ([9]; PREEMERGENCE, Rate 250 g/ha) was 0 and the “Plant response rating, Johnsongrass” value ([10]; POSTEMERGENCE, Rate 125 g/ha) was 0. For the same compound, the “Plant response rating, Johnsongrass” value ([10]; POSTEMERGENCE, Rate 250 g/ha) was 0, the “Plant response rating, Johnsongrass” value ([10]; PREEMERGENCE, Rate 125 g/ha) was 30 and the “Plant response rating, Johnsongrass” value ([10]; PREEMERGENCE, Rate 250 g/ha) was 0. For the same compound, the “Plant response rating, Pit Morninglory” value ([11]; POSTEMERGENCE, Rate 125 g/ha) was 0, the “Plant response rating, Pit Morninglory” value ([11]; POSTEMERGENCE, Rate 250 g/ha) was 20 and the “Plant response rating, Pit Morninglory” value ([11]; PREEMERGENCE, Rate 125 g/ha) was 0. For the same compound, the “Plant response rating, Pit Morninglory” value ([11]; PREEMERGENCE, Rate 250 g/ha) was 20, the “Plant response rating, Itchgrass” value ([12]; POSTEMERGENCE, Rate 125 g/ha) was 0 and the “Plant response rating, Itchgrass” value ([12]; POSTEMERGENCE, Rate 250 g/ha) was 0. For the same compound, the “Plant response rating, Itchgrass” value ([12]; PREEMERGENCE, Rate 125 g/ha) was 60, the “Plant response rating, Itchgrass” value ([12]; PREEMERGENCE, Rate 250 g/ha) was 0 and the “Plant response rating, Dallisgrass” value ([13]; POSTEMERGENCE, Rate 125 g/ha) was 0. For the same compound, the “Plant response rating, Dallisgrass” value ([13]; POSTEMERGENCE, Rate 250 g/ha) was 0, the “Plant response rating, Dallisgrass” value ([13]; PREEMERGENCE, Rate 125 g/ha) was 20 and the “Plant response rating, Dallisgrass” value ([13]; PREEMERGENCE, Rate 250 g/ha) was 40. The “Plant response rating, S. Sandbur” value ([14]; POSTEMERGENCE, Rate 125 g/ha) was 0, the “Plant response rating, S. Sandbur” value ([14]; POSTEMERGENCE, Rate 250 g/ha) was 0 and the “Plant response rating, S. Sandbur” value ([14]; PREEMERGENCE, Rate 125 g/ha) was 0. For the same compound, the “Plant response rating, S. Sandbur” value ([14]; PREEMERGENCE, Rate 250 g/ha) was 0, the “Plant response rating, Cmn Ragweed” value ([15]; POSTEMERGENCE, Rate 125 g/ha) was 0 and the “Plant response rating, Cmn Ragweed” value ([15]; POSTEMERGENCE, Rate 250 g/ha) was 100. The “Plant response rating, Cmn Ragweed” value ([15]; PREEMERGENCE, Rate 125 g/ha) was 50, the “Plant response rating, Cmn Ragweed” value ([15]; PREEMERGENCE, Rate 250 g/ha) was 50 and the “Plant response rating, Alfalfa Var.” value ([16]; POSTEMERGENCE, Rate 125 g/ha) was 0. For the same compound, the “Plant response rating, Alfalfa Var.” value ([16]; POSTEMERGENCE, Rate 250 g/ha) was 0, the “Plant response rating, Alfalfa Var.” value ([16]; PREEMERGENCE, Rate 125 g/ha) was 0 and the “Plant response rating, Alfalfa Var.” value ([16]; PREEMERGENCE, Rate 250 g/ha) was 0. For the same compound, the “Plant response rating, Cmn Purslane” value ([17]; POSTEMERGENCE, Rate 125 g/ha) was 70, the “Plant response rating, Cmn Purslane” value ([17]; POSTEMERGENCE, Rate 250 g/ha) was 90 and the “Plant response rating, Cmn Purslane” value ([17]; PREEMERGENCE, Rate 125 g/ha) was 100. The “Plant response rating, Cmn Purslane” value ([17]; PREEMERGENCE, Rate 250 g/ha) was 0.

From patent publication US6358885B1, “Substituted phenylheterocyclic herbicides” (Mississippi State University, priority 1992, dated 2002)
